Test results taken from patent US20260137662A1, “CD11B AGONISTS FOR TREATMENT OF AUTOIMMUNE DISEASE” (Rush University Medical Center, priority 2022, published 2026).

Key:
[1] = tested on: IMQ-induced mouse model of lupus; experiment: IMQ-induced mouse model of lupus, LA1 co-treatment i.p.; type: in vivo, wild type C57BL/6 mice; conditions: IMQ cream 8 weeks
Protocol: FIG. 8A illustrates an experimental timeline for the measurement of suPAR levels, albumin creatinine ratios (ACR), anti-dsDNA antibody levels, and spleen size in wild type mouse models treated with IMQ, LA1, or IMO and LA1 co-treatment.
FIG. 8B illustrates levels of biomarker suPAR in the blood and urine of wild type mice (WT), mice treated with IMQ, mice co-treated with IMQ and vehicle DMSO or mice co-treated with IMQ and LA1 (2 mg/kg i.p. daily). Each dot represents a unique sample. Bars show mean +/−SEM (n=5).
FIG. 8C illustrates the albumin creatinine ratios (ACR) in the blood and urine of wild type mice (WT), mice treated with IMQ, mice co-treated with IMQ and vehicle DMSO or mice co-treated with IMQ and LA1 (2 mg/kg i.p. daily). Each dot represents a unique sample. Bars show mean +/−SEM (n=5).
FIG. 8D illustrates levels of anti-dsDNA antibodies in the blood and urine of wild type mice (WT), mice treated with IMQ, mice co-treated with IMQ and vehicle DMSO, or mice co-treated with IMQ and LA1 (2 mg/kg i.p. daily). Each dot represents a unique sample. Bars show mean +/−SEM (n=5).
FIG. 8E illustrates spleen size (mm) and weight (g) of wild type mice (WT), mice treated with IMQ, mice co-treated with IMQ and vehicle DMSO, or mice co-treated with IMQ and LA1. Each dot represents a unique sample. Bars show mean +/−SEM (n=5).
To investigate efficacy of LA1 as a therapeutic for SLE and autoimmune diseases in vivo, an IMQ-induced mouse model of lupus (Yokogawa et al, 2014) was used. Imiquimod (IMQ), a known TLR7 stimulant, was used to induce disease in wild type mice. Briefly, wild type C57BL/6 mice (WT) were treated topically with IMQ cream (Aldara) over the course of 8 weeks, as shown in the timeline of FIG. 8A, a group was also co-treated intraperitoneally with LA1 or vehicle DMSO. Blood and urine were collected for analysis of inflammatory cytokines and proteinuria over the course of treatment. […] Additionally, spleen size and weight were recorded.

[2] = tested on: TLR7 mediated pro-inflammatory biomarkers; experiment: Secretion of pro-inflammatory biomarkers from myeloid cells stimulated with imiquimod (ELISA); type: cell-based; conditions: IMQ (20 ug/mL) and LA1 (20 uM) co-treatment, 4 hours
Protocol: FIG. 5A illustrates the levels of biomarker IL-1b secretion in myeloid cells after 4 hours of treatment with vehicle DMSO (UT), LA1 (20 uM), Imiquimod (IMQ) (20 ug/mL), or IMQ and LA1 co-treatment. Bars show mean with SD (N=3) (*P<0.05, **P<0.01, ***P<0.001, ***P<0.0001).
FIG. 5B illustrates the levels of biomarker suPAR secretion in myeloid cells after 4 hours of treatment with vehicle DMSO (UT), LA1 (20 uM), Imiquimod (IMQ) (20 ug/mL), or IMQ and LA1 co-treatment. Bars show mean with SD (N=3) (*P<0.05, **P<0.01, ***P<0.001, ***P<0.0001).
FIG. 5C illustrates the levels of biomarker IL-6 secretion in myeloid cells after 4 hours of treatment with vehicle DMSO (UT), LA1 (20 uM), Imiquimod (IMQ) (20 ug/mL), or IMQ and LA1 co-treatment. Bars show mean with SD (N=3) (*P<0.05, **P<0.01, ***P<0.001, ***P<0.0001).
FIG. 5D illustrates the levels of biomarker TNFalpha secretion in myeloid cells after 4 hours of treatment with vehicle DMSO (UT), LA1 (20 uM), Imiquimod (IMQ) (20 ug/mL), or IMQ and LA1 co-treatment.
FIG. 5E illustrates the levels of biomarker IFN-b secretion in myeloid cells after 4 hours of treatment with vehicle DMSO (UT), LA1 (20 uM), Imiquimod (IMQ) (20 ug/mL), or IMQ and LA1 co-treatment. Bars show mean with SD (N=3) (*P<0.05, **P<0.01, ***P<0.001, ****P<0.0001).
The concentration of TLR7 mediated pro-inflammatory biomarkers in untreated myeloid cells, myeloid cells treated with LA1, myeloid cells treated with IMQ, and myeloid cells co-treated with IMQ and LA1 was assessed by ELISA.

[3] = co-treated with LA1 2 mg/kg i.p. daily, vs IMQ

SMILES: O=C(O)c1ccc(-c2ccc(/C=C3\SC(=S)N(Cc4ccccc4)C3=O)o2)cc1 [LA1, (Z)-4-(5-((3-benzyl-4-oxo-2-thioxothiazolidin-5-ylidene)methyl)furan-2-yl)benzoic acid]
- spleen size ([1]; co-treated with LA1): reduced
- spleen weight ([1]; co-treated with LA1): reduced
- albumin creatinine ratios (ACR) [1, 3]: significantly reduced
- levels of anti-dsDNA antibodies [1, 3]: significantly reduced
- levels of suPAR [1, 3]: significantly reduced
- TLR7-dependent increase in IL-1b level (ELISA) [2]: significantly reduced
- TLR7-dependent increase in IL-6 level (ELISA) [2]: significantly reduced
- TLR7-dependent increase in TNF-a level (ELISA) [2]: significantly reduced
- TLR7-dependent increase in uPAR level (ELISA) [2]: significantly reduced
